“Also recorded” adds a separate entry of the source. Read-outs that look alike come from different tables or passages of the source.
Key:
[1] = test system: HT1080 tumors expressing HA-SSTR2 wild-type, HA-D314 or vector
Protocol: (§1) Stably transfected HT1080 cells were implanted subcutaneously in nude mice (three tumors, HA-wt, HA-D314, vector, per animal). When tumors were palpable, daily injections of the somatostatin analogue sandostatin were initiated and tumors were measured by calipers every two days.
(§2) Stably transfected HT1080 cells were implanted subcutaneously in nude mice (three tumors, HA-wt, HA-D314, vector, per animal).
(§3) Stably transfected HT1080 cells were implanted subcutaneously in nude mice (three tumors, HA-wt, HA-D314, vector, per animal). When tumors were palpable, 90Y-octreotate was given once at a dose of 1 mCi (FIG. 7A) or twice at doses of 2 mCi and 1 mCi (FIG. 7B).
as §1, §2, §3

[2] = test system: HT1080 cells (fibrosarcoma cells that do not endogenously express SSTR2); experiment: MTT cell growth assay of HT1080 cells transfected with HA-SSTR2 wild-type or C-terminal deletions; type: cell-based; details: 5% FBS, with or without 100 nM sandostatin, three days
Protocol: Three days later, MTT assay was used to determine cell number.
In the following experiments, HA-tagged receptors were used.
(§4) Two days after transient transfection with HA-SSTR2D351 or HA-SSTR2D340, 3000 HT1080 cells were grown in the presence of 5% FBS with or without 100 nM of the somatostatin analogue sandostatin. Three days later, MTT assay was used to determine cell number.

[3] = test system: Human ovarian cancer (Hey A8) tumors incorporating HS5 cells; experiment: Growth of Hey A8 tumors co-injected with HS5 cells expressing or not expressing HA-SSTR2D314; type: in vivo, nude mice; details: intravenous
Source text: FIG. 8: Stem cells expressing the signaling deficient mutant SSTR2D314 incorporate into tumor and can be targeted with a therapeutic for Inhibiting tumor growth.
Stem cells expressing the signaling deficient mutant SSTR2D314 incorporated into tumor and can be targeted with a therapeutic for inhibiting tumor growth (FIG. 8). […] Human ovarian cancer (Hey A8) cells were co-injected subcutaneously in nude mice with HS5 cells expressing or not expressing HA-SSTR2D314. […] Once tumors were established, 90Y-octreotate was delivered intravenously. Tumors were measured by calipers every two days. Tumors incorporating HS5 cells expressing the HA-SSTR2D314 mutant were growth inhibited compared to control (*p<0.05, HeyA8+HS5-SSTR2D314 vs HeyA8+HS5vector). The incorporated stem cells, but not the tumor cells, serve as a target for the therapeutic.

[4] = test system: HT1080 cells expressing wild-type or signaling deficient HA-SSTR2 receptors, or vector transfected; experiment: Cell death by trypan blue uptake in stably transfected HT1080 cells; type: cell-based
Protocol: Stably transfected HT1080 cells were exposed to different amounts of ^90Y-DOTATATE for 1 hour and 72 hours.

[5] = test system: Mouse ES cell-derived tumors expressing HA-SSTR2 or HA-SSTR2delta314; experiment: Growth of embryonic stem cell-derived teratomas measured by calipers; type: in vivo, nude mice; details: tumors derived from wild type ES cells, i.v. twice
Protocol: Mouse ES cells (these are pluripotent stem cells that can be used to create transgenic mice and like most ES cells result in teratomas when injected in nude mice) were transfected with a plasmid containing HA-SSTR2 or HA-SSTR2delta314. Clones were then selected for expression. The cells were then injected into nude mice subcutaneously and tumor size was measured by calipers. After tumors were present in three locations per mouse in all 8 mice, the animals were injected i.v. with 90-Y labeled octreotate two days and 5 days later.
After tumors were present in three locations per mouse in all 8 mice, the animals were injected i.v. with 90-Y labeled octreotate two days and 5 days later as on the chart. Tumor size was measured by calipers. Unlike many stem cells, embryonic stem cells (ES) more commonly form teratomas. Inhibition of growth of established teratomas was assessed.

[6] = test system: Human ovarian cancer (Hey A8) tumors to which HS5 cells homed; experiment: Growth of Hey A8 tumors after systemic (intracardiac) injection of HS5 cells expressing or not expressing HA-SSTR2D314; type: in vivo, nude mice; details: HeyA8 tumors, intravenous
Protocol: FIG. 9: Stem cells expressing the signaling deficient mutant SSTR2D314 home to and incorporate into tumor and can be targeted with a therapeutic for inhibiting tumor growth.
Stem cells expressing the signaling deficient mutant SSTR2D314 home to and incorporate into tumor and can be targeted with a therapeutic for inhibiting tumor growth (FIG. 9). […] Human ovarian cancer (Hey A8) cells on one side and vehicle on the other side were injected subcutaneously in nude. Two days later, human mesenchymal stem cells (HS5 cells) expressing or not expressing HA-SSTR2D314 were injected systemically (intracardiac). […] Tumors were seen on the side injected with HeyA8 cells. Once tumors were established, 90Y-octreotate was delivered intravenously. Tumors were measured by calipers every two days. Tumors to which HS5 cells expressing the HA-SSTR2D314 mutant homed and incorporated were growth inhibited compared to control (*p<0.05, HeyA8+HS5-SSTR2D314 vs HeyA8+HS5vector). The incorporated stem cells not the tumor cells serve as a target for the therapeutic.

[7] = test system: untransfected HT1080 cells admixed with HS5 cells; experiment: Bystander cell death, live/dead staining of HS5 mesenchymal stem cells admixed with untransfected HT1080 cells; type: cell-based, human; details: HS5 stably expressing wild-type or signaling deficient HA-SSTR2 admixed with untransfected HT1080, 24 hours
Protocol: FIG. 4: Exposure to 90Y-DOTA-octreotate (DOTATATE) results in bystander cell death of tumor cells. Human mesenchymal stem cells (HS5) stably expressing wild-type or signaling deficient HA-SSTR2 receptors or transfected with vector were admixed with untransfected HT1080 cells and then exposed to 90Y-DOTATATE for 24 hours. Then, live (green)/dead (red) staining was performed.
Mixing mesenchymal stem cells expressing SSTR2 or the signaling deficient mutant delta 314 with untransfected tumor cells results in kill of rosettes of clusters of cells that are not seen if mesenchymal stem cells transfected with vector are used (FIG. 4), consistent with bystander killing. Human mesenchymal stem cells (HS5) stably expressing wild-type or signaling deficient HA-SSTR2 receptors or transfected with vector were admixed with untransfected HT1080 cells and then exposed to 90Y-DOTATATE for 24 hours.

HeyA8 tumors = experiment: Growth of HeyA8 tumors injected with adenovirus expressing HA-SSTR2delta340; type: in vivo; details: HeyA8 tumors in nude mice, intratumoral adenovirus
Protocol: FIG. 12. Constitutively active SSTR2delta340 inhibits the growth of tumor cells. Nude mice were Injected subcutaneously with HeyA8 tumors cells and then each tumor was injected with adenovirus expressing HA-SSTR2delta340 or control inserts (8 tumors per group). Tumor size was measured by calipers. *p<0.05, tumors injected with adv-HA-SSTR2delta340 and given saline vs tumors injected with adv-GFP and given saline; for clarity only the comparison of these two groups is illustrated with *.
as §4

[8] = stably transfected HT1080 cells

How did the “tumor growth (calipers)” value ([1]; tumors expressing signaling deficient receptor (HA-D314), daily injections) turn out when octreotide was run?
The value was “no decrease in tumor size was seen”.

And the “tumor growth (calipers)” value ([1]; tumors expressing wild-type receptor, daily injections)?
The value was “inhibited growth of tumors expressing wild-type receptor”.

And the “tumor growth (calipers)” value ([1]; tumors from vector transfected cells, daily injections)?
Its value is “not the signaling deficient receptor or tumors derived from vector transfected cells”.

Which “cell growth (cell number by MTT assay)” value [2, 8] does the source give for “HA-SSTR2D314: signaling deficient human SSTR2 truncated carboxy terminal to amino acid 314 (amino acids 1-314 of SEQ ID NO:6), HA-tagged” here?
Its value is “does not inhibit cellular growth upon ligand stimulation”.

“wild-type SSTR2: HA-tagged wild-type (full length) human somatostatin receptor type 2” was tested. Which “cell growth (cell number by MTT assay)” value [2, 8] did it give?
Its value is “require ligand stimulation to inhibit growth”.

For [^90Y-DOTA]-octreotate [90Y-DOTATATE], which “tumor growth (calipers)” value ([3]; HeyA8+HS5-SSTR2D314 co-injected subcutaneously) is on record?
The value was “inhibited growth of human tumors incorporating HS5 human mesenchymal stem cells expressing SSTR2D314”.

What about the “tumor growth (calipers)” value ([3]; HeyA8+control HS5 (vector) co-injected subcutaneously) of the same substance?
Its value is “not control HS5 cells”.

What about the “cell death (trypan blue uptake)” value ([4]; HT1080 cells expressing signaling deficient HA-SSTR2, exposure 1 hour and 72 hours) of the same substance?
The value was “Dose dependent and time dependent killing was observed”.

What about the “cell death (trypan blue uptake)” value ([4]; HT1080 cells expressing wild-type HA-SSTR2, exposure 1 hour and 72 hours) of the same substance?
The value was “Dose dependent and time dependent killing was observed”.

And the “tumor growth (calipers)” value ([1]; tumors expressing signaling deficient receptor (HA-D314), once 1 mCi or twice 2 mCi and 1 mCi, listed as 90Y-octreotate)?
Its value is “inhibited growth of tumors expressing wild-type or signaling deficient receptors; also recorded: decreased in size in a dose dependent manner”.

What about the “tumor growth (calipers)” value ([1]; tumors expressing wild-type receptor, once 1 mCi or twice 2 mCi and 1 mCi) of the same substance?
Its value is “inhibited growth of tumors expressing wild-type or signaling deficient receptors”.

And the “tumor growth (calipers)” value ([1]; tumors from vector transfected cells, once 1 mCi or twice 2 mCi and 1 mCi)?
The value was “not tumors derived from vector transfected cells”.

And the “teratoma growth (calipers)” value [5]?
Its value is “not tumors derived from wild type ES cells”.

And the “tumor growth (calipers)” value ([6]; HS5 expressing HA-SSTR2D314 injected intracardiac)?
The value was “inhibited growth of human tumors to which human mesenchymal stem cells expressing HA-SSTR2D314 homed and incorporated”.

What about the “tumor growth (calipers)” value ([6]; control HS5 injected intracardiac) of the same substance?
Its value is “not control HS5 cells”.

What about the “bystander cell death (live/dead staining)” value [7] of the same substance?
The value was “Rosettes (clusters) of dead cells were seen”.

How did the “tumor growth (size by calipers)” value (HeyA8 tumors) turn out when “HA-SSTR2D340: constitutively active human SSTR2 mutant, C-terminal amino acids after position 340 deleted (amino acids 1-340 of SEQ ID NO:6), HA-tagged” was run?
The value was “inhibits the growth of tumor cells in vivo”.

And the “cell growth (cell number by MTT assay)” value [2, 8]?
The value was “inhibits growth even without ligand stimulation”.

And the “cell growth (cell number by MTT assay)” value ([2]; transiently transfected HT1080 cells)?
The value was “inhibit growth even without ligand stimulation”.
